Assay results: patent US11161830B2, “4-pyridone compound or salt thereof, and pharmaceutical composition and formulation including same” (priority 2017, dated 2021)
Like-named read-outs stand apart in the source and are kept apart here.

What was measured:
HBV = assay: Test Example 1-1: anti-HBV assay in HepG2.2.15 cells (test solution 200 μL/well); assay type: cell-based, hepatitis B virus; conditions: culture supernatant
Procedure: Using HepG2.2.15 cells (Proc. Natl. Acad. Sci. USA, 84, 1005-1009, 1987) which have an HBV genome introduced into a hepatoblastoma cell line, HepG2, and persistently produce a virus, the anti-HBV activity of the representative compounds was evaluated in the following procedure.
(§1) The following was used as a medium:
DMEM/F-12, GlutaMAX (manufactured by Invitrogen)+5 μg/mL insulin (manufactured by Wako)+1% penicillin/streptomycin (manufactured by Sigma)+10 mmol/L HEPES (manufactured by Sigma)+50 μmol/L hydrocortisone (manufactured by Sigma)+10% FBS
A mixture of a test compound with dimethyl sulfoxide (DMSO) was further added to the medium to obtain a final concentration of DMSO of 0.25% (v/v), and thus, test solutions containing the test compound at various concentrations were prepared. In addition, a test solution obtained by adding DMSO alone to the medium to obtain a final concentration of 0.25% (v/v) was prepared as a control without addition of a drug.
(1) The HepG2.2.15 cells were suspended in the medium to prepare a. HepG2.2.15 cell suspension at 4×10^5 cells/mL. The suspension was seeded in a 96-well microtiter plate (100 μL/well) and the plate was incubated in a 5% CO2 incubator at 37° C. for 2 days.
(2) The culture supernatant was removed and the cells were washed twice with PBS (−) (100 μL/well).
(3) The test solution (200 μL/well) was added to the plate of (2) and the plate was incubated in a 5% CO2 incubator at 37° C. for 4 days.
(4) The culture supernatant was removed, the test solution (200 μL/well) was added again to the plate, and the plate was incubated in a 5% CO2 incubator at 37° C. for 3 days.
(5) The culture supernatant was collected and treated with a mixture of Buffer AL (manufactured by QIAGEN) and Proteinase K (manufactured by Invitrogen). The amount of DNA of HBV (HBV-DNA) in the obtained solution was absolutely quantified by a real-time PCR method. In addition, HBsAg (hepatitis B surface antigen) in the culture supernatant was absolutely quantified by chemiluminescent enzyme immunoassay using Lumipulse (registered trademark) HBsAg-HQ (manufactured by Fujirebio Inc.). The relative viral load (%) of a well with the compound added to a well without the compound added was calculated. An IC50 of the compound was calculated using a FORECAST function (linear regression method) of Microsoft Office Excel 2007 by plotting the logarithm of the concentration against the relative viral load as a real number.
The IC50 of HBV-DNA was defined as a concentration (or a logarithm dilution of the culture supernatant) of the compound, in which the amount of HBV-DNA is reduced by 50% as compared a control without the compound added.
In addition, the IC50 of HBsAg was defined as a concentration (or a logarithm dilution of the culture supernatant) of the compound, in which the amount of HBsAg is reduced by 50% as compared a control without the compound added.

HBV (genotype AeUS) = assay: Test Example 2-1: anti-HBV assay in PXB-cells (fresh human hepatocytes); assay type: cell-based, hepatitis B virus; conditions: PXB-cells infected with HBV genotype AeUS, culture supernatant on day 32 post infection
Procedure: Using fresh human hepatocytes (PXB-cells, manufactured by PhenixBio Co., Ltd.) collected from a PXB mouse (a chimeric mouse with human hepatocytes), the anti-HBV activity of the representative compounds was evaluated in the following procedure.
as §1
DMEM (manufactured by Sigma)+0.25 μg/mL insulin (manufactured by Wako)+1% penicillin/streptomycin. (manufactured by Sigma)+20 mmol/L HEPES (manufactured by Sigma)+15 μg/mL L-proline (manufactured by Sigma)+50 nmol/L dexamethasone (manufactured by Sigma)+5 ng/mL EGF (manufactured by Peprotech)+0.1 mmol/L ascorbic acid 2-phosphate (manufactured by Wako)+10% FBS+2% DMSO
Each of the test compounds) was further added to the medium to prepare a test solution containing each of the test compounds at various concentrations.
(1) PXB-cells seeded at a seeding density of 2.1×10^5 cells/cm^2 in a 96-well microliter plate were incubated in a 5% CO2 incubator at 37° C. until a day on which the cells were infected.
(2) HBV (genotype AeUS) derived from a PXB mouse serum was suspended in the medium containing 4% PEG-8000, and added to the plate of (1) at about 10 copies/cell such that the PXB cells were infected (100 μL/well), and the plate was incubated in a 5% CO2 incubator at 37° C. for 1 day.
(3) The culture supernatant on day 1 post infection was removed and the cells were washed three times with DMEM containing 10% FBS and 1% penicillin/streptomycin. Then, the medium was added to the plate (100 μL/well) and the plate was incubated in a 5% CO2 incubator at 37° C. for 1 day.
(4) The culture supernatant on day 2 post infection was removed and the cells were washed three times with DMEM containing 10% FBS and 1% penicillin/streptomycin. Then, the medium was added to the plate (100 μL/well) and the plate was incubated in a 5% CO2 incubator at 37° C. for 5 days.
(5) The culture supernatant on day 7 post infection was removed, the medium was added to the plate (100 μL/well), and the plate was incubated in a 5% CO2 incubator at 37° C. for 5 days.
(6) The culture supernatant on day 12 post infection was removed, the medium was added to the plate (100 μL/well), and the plate was incubated in a 5% CO2 incubator at 37° C. for 5 days.
(§2) (7) The culture supernatant on day 17 post infection was removed, the test solution was added to the plate (100 μL/well), and the plate was incubated in a 5% CO2 incubator at 37° C. for 5 days. As a control without the compound added, the medium was added to the plate (100 μL/well) and the plate was incubated in a 5% CO2 incubator at 37° C. for 5 days.
as §2, with “(8)” for “(7)”, “22” for “17”
as §2, with “(9)” for “(7)”, “27” for “17”
(10) The culture supernatant on day 32 post infection was collected.
(11) The collected culture supernatant on day 32 post infection was purified with a QIAamp (registered trademark) DNA Blood Mini Kit (manufactured by QIAGEN). The amount of HBV-DNA in the obtained solution was absolutely quantified by a real-time PCR method. In addition, the amount of HBsAg in the culture supernatant was absolutely quantified by chemiluminescent enzyme immunoassay using Lumipulse (registered trademark) HBsAg-HQ (manufactured by Fujirebio Inc.). A relative viral load (%) with respect to a control without the compound added was each calculated. […]

[1] = Hepatitis B virus, read-out: IC50 HBV-DNA
[2] = Hepatitis B virus, read-out: IC50 HBsAg
[3] = Hepatitis B virus, Hepatocyte, read-out: IC50 HBV-DNA
[4] = Hepatitis B virus, Hepatocyte, read-out: IC50 HBsAg

| Molecule | IC50 (HBV; read-out: IC50 HBV-DNA) [nM] | IC50 (HBV; read-out: IC50 HBsAg) [nM] | IC50 (HBV (genotype AeUS); read-out: IC50 HBV-DNA) [nM] | IC50 (HBV (genotype AeUS); read-out: IC50 HBsAg) [nM] | IC50 (HBV; [1]) [nM] | IC50 (HBV; [2]) [nM] | IC50 (HBV (genotype AeUS); [3]) [nM] | IC50 (HBV (genotype AeUS); [4]) [nM] |
| --- | --- | --- | --- | --- | --- | --- | --- | --- |
| 1-(2-morpholinebenzo[d]thiazol-6-yl)-4-oxo-6-(4-(pyrrolidin-1-yl)phenyl)-1,4-dihydropyridine-3-carboxylic acid [Example 3-4] | 5.5 | 5.9 | 22 | 14 | – | – | – | – |
| O=C(O)c1cn(-c2ccc3ncsc3c2)c(-c2ccc(N3CCCC3)cc2)cc1=O [Example 3-1, 1-(benzo[d]thiazol-6-yl)-4-oxo-6-(4-(pyrrolidin-1-yl)phenyl)-1,4-dihydropyridine-3-carboxylic acid] | – | – | – | – | 27 | 21 | 230 | 540 |
| Cc1nc2ccc(-n3cc(C(=O)O)c(=O)cc3-c3ccc(N4CCCC4)cc3)cc2s1 [Example 3-2, 1-(2-methylbenzo[d]thiazol-6-yl)-4-oxo-6-(4-(pyrrolidin-1-yl)phenyl)-1,4-dihydropyridine-3-carboxylic acid] | – | – | – | – | 9 | 3.1 | 470 | 150 |
| O=C(O)c1cn(-c2ccc3nc(N4CCCC4)sc3c2)c(-c2ccc(N3CCCC3)cc2)cc1=O [Example 3-3, 4-oxo-1-(2-(pyrrolidin-1-yl)benzo[d]thiazol-6-yl)-6-(4-(pyrrolidin-1-yl)phenyl)-1,4-dihydropyridine-3-carboxylic acid] | – | – | – | – | 2 | 5 | 52 | 77 |
| COC[C@H]1CCCN1c1nc2ccc(-n3cc(C(=O)O)c(=O)cc3-c3ccc(N4CCCC4)cc3)cc2s1 [Example 3-10, (R)-1-(2-(2-(methoxymethyl)pyrrolidin-1-yl)benzo[d]thiazol-6-yl)-4-oxo-6-(4-(pyrrolidin-1-yl)phenyl)-1,4-dihydropyridine-3-carboxylic acid] | – | – | – | – | 2.8 | 1.3 | 15 | 39 |
| O=C(O)c1cn(-c2ccc3nc(NCc4ncccn4)sc3c2)c(-c2ccc(N3CCCC3)cc2)cc1=O [Example 3-13, 4-oxo-1-(2-((pyrimidin-2-ylmethyl)amino)benzo[d]thiazol-6-yl)-6-(4-(pyrrolidin-1-yl)phenyl)-1,4-dihydropyridine-3-carboxylic acid] | – | – | – | – | 3.9 | 5.1 | < 8 | 39 |
| Cc1nc2ccc(-n3cc(C(=O)O)c(=O)cc3-c3ccc(N4CCCC4)c(Br)c3)cc2s1 [Example 5-1, 6-(3-bromo-4-(pyrrolidin-1-yl)phenyl)-1-(2-methylbenzo[d]thiazol-6-yl)-4-oxo-1,4-dihydropyridine-3-carboxylic acid] | – | – | – | – | 3.7 | 6.4 | 200 | 150 |
| COCCN(CCOC)c1nc2ccc(-n3cc(C(=O)O)c(=O)cc3-c3ccc(N4CCCC4)c(Cl)c3)cc2s1 [Example 6-2] | – | – | 25 | 81 | – | – | – | – |
| COC[C@H]1CCCN1c1nc2ccc(-n3cc(C(=O)O)c(=O)cc3-c3ccc(N4CCCC4)c(Cl)c3)cc2s1 [Example 6-3, (R)-6-(3-chloro-4-(pyrrolidin-1-yl)phenyl)-1-(2-(2-(methoxymethyl)pyrrolidin-1-yl)benzo[d]thiazol-6-yl)-4-oxo-1,4-dihydropyridine-3-carboxylic acid] | – | – | – | – | – | – | 30 | 57 |
| O=C(O)c1cn(-c2ccc3nc(N4CCOCC4)sc3c2)c(-c2ccc(N3CCCC3)c(F)c2)cc1=O [Example 7, 6-(3-Fluoro-4-(pyrrolidin-1-yl)phenyl)-1-(2-morpholinobenzo[d]thiazol-6-yl)-4-oxo-1,4-dihydropyridine-3-carboxylic acid] | – | – | – | – | 1.4 | 3.1 | 12 | 41 |
| COCCN(CCOC)c1nc2ccc(-n3cc(C(=O)O)c(=O)cc3-c3ccc(N4CC[C@@H](OC)C4)cc3)cc2s1 [Example 10-3] | – | – | 47 | 56 | – | – | – | – |
| CCN1CCN(c2nc3ccc(-n4cc(C(=O)O)c(=O)cc4-c4ccc(N5CC[C@@H](OC)C5)cc4)cc3s2)CC1 [Example 10-4, (R)-1-(2-(4-ethylpiperazin-1-yl)benzo[d]thiazol-6-yl)-6-(4-(3-methoxypyrrolidin-1-yl)phenyl)-4-oxo-1,4-dihydropyridine-3-carboxylic acid] | – | – | – | – | – | – | 61 | 78 |
| COCCN(CCOC)c1nc2ccc(-n3cc(C(=O)O)c(=O)cc3-c3ccc(N4CC[C@@H](OC)C4)c(Cl)c3)cc2s1 [Example 12-1, (R)-1-(2-(bis(2-methoxyethyl)amino)benzo[d]thiazol-6-yl)-6-(3-chloro-4-(3-methoxypyrrolidin-1-yl)phenyl)-4-oxo-1,4-dihydropyridine-3-carboxylic acid] | – | – | – | – | – | – | < 8 | 11 |
| COCCN1CCN(c2nc3ccc(-n4cc(C(=O)O)c(=O)cc4-c4ccc(N5CC[C@@H](OC)C5)c(Cl)c4)cc3s2)CC1 [Example 12-2, (R)-6-(3-chloro-4-(3-methoxypyrrolidin-1-yl)phenyl)-1-(2-(4-(2-methoxyethyl)piperazin-1-yl)benzo[d]thiazol-6-yl)-4-oxo-1,4-dihydropyridine-3-carboxylic acid] | – | – | – | – | – | – | 28 | 42 |
